{
  "source": "paper PMC9318694",
  "about": "(Molecules, 2022)",
  "origin": "cited, not measured here",
  "data": [
    {"molecular_target": "D2R (Homo sapiens, UniProt P14416)", "sequence (P14416 whole entry)": "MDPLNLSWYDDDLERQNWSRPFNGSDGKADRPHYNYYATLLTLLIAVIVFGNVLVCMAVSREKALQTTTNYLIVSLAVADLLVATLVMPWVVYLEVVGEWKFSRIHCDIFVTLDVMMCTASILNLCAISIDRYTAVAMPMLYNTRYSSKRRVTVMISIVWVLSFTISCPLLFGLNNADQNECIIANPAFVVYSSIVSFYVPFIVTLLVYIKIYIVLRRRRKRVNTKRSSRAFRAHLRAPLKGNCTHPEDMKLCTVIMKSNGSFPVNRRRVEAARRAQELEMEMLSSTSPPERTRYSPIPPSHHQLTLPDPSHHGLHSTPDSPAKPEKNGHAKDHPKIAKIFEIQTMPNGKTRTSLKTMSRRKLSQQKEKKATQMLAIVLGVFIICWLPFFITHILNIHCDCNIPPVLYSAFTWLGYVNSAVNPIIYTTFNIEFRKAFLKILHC", "settings": "Table S1; data set of actives, radio-ligand binding assays; ref ChEMBL, [50]-[70]; read-out: KI; cited from earlier work", "units": {"Ki": "nM"}, "values": [
      {"smiles": "C=CCN1C[C@H](C(=O)N(CCCN(C)C)C(=O)NCC)C[C@@H]2c3cccc4[nH]cc(c34)C[C@H]21", "note": "[Compound 3, Cabergoline]", "Ki": 0.7},
      {"smiles": "CCCN(CCCCNC(=O)c1ccc(OCCCc2cn(CCCCCCCCn3cc(CCCOc4ccc(C(=O)NCCCCN(CCC)C5Cc6ccccc6C5)cc4OC)nn3)nn2)c(OC)c1)C1Cc2ccccc2C1", "note": "[SC2, 4,4'-(((octane-1,8-diylbis(1H-1,2,3-triazole-1,4-diyl))bis(propane-3,1-diyl))bis(oxy))bis(N-(4-((2,3-dihydro-1H-inden-2-yl)(propyl)amino)butyl)-3-methoxybenzamide)]", "Ki": 16},
      {"smiles": "CCCCn1cc(CCCOc2ccc(C(=O)NCCCCN(CCC)C3Cc4ccccc4C3)cc2OC)nn1", "note": "[SC3, 4-(3-(1-butyl-1H-1,2,3-triazol-4-yl)propoxy)-N-(4-((2,3-dihydro-1H-inden-2-yl)(propyl)amino)butyl)-3-methoxybenzamide]", "Ki": 12},
      {"smiles": "O=C1NCCc2ccc(OCCCN3CCN(c4cccc(Cl)c4Cl)CC3)cc21", "note": "[SC5, 7-(3-(4-(2,3-dichlorophenyl)piperazin-1-yl)propoxy)-3,4-dihydroisoquinolin-1(2H)-one]", "Ki": 18},
      {"smiles": "Clc1cccc(C2CCN(CCCOc3ccc4scnc4c3)CC2)c1Cl", "note": "[SC7, 5-(3-(4-(2,3-dichlorophenyl)piperidin-1-yl)propoxy)benzo[d]thiazole]", "Ki": 75},
      {"smiles": "Clc1cccc(N2CCN(CCCOc3ccc4scnc4c3)CC2)c1Cl", "note": "[SC8, 5-(3-(4-(2,3-dichlorophenyl)piperazin-1-yl)propoxy)benzo[d]thiazole]", "Ki": 30},
      {"smiles": "C#CC1=CC[C@H](N(CCC)CCCCNC(=O)c2ccc(OCCCc3cnn(CCCC)n3)c(OC)c2)CC1", "note": "[SC14, (R)-4-(3-(2-butyl-2H-1,2,3-triazol-4-yl)propoxy)-N-(4-((4-ethynylcyclohex-3-en-1-yl)(propyl)amino)butyl)-3-methoxybenzamide]", "Ki": 4.2},
      {"smiles": "C#CC1=CC[C@H](N(CCC)CCCCNC(=O)c2cc3ccccc3s2)CC1", "note": "[SC15, (R)-N-(4-((4-ethynylcyclohex-3-en-1-yl)(propyl)amino)butyl)benzo[b]thiophene-2-carboxamide]", "Ki": 3.1},
      {"smiles": "CCCN(CCC)[C@@H]1Cc2cccc3nc(O)n(c23)C1", "note": "[SC17, (R)-5-(dipropylamino)-5,6-dihydro-4H-imidazo[4,5,1-ij]quinolin-2-ol]", "Ki": 11.4},
      {"smiles": "Oc1ccc2c(c1)O[C@@H](CNCc1cccc(I)c1)CC2", "note": "[SC21, (R)-2-(((3-iodobenzyl)amino)methyl)chroman-7-ol]", "Ki": 2.06},
      {"smiles": "Oc1ccc2c(c1)O[C@@H](CNCc1ccc(OCCCCF)cc1)CC2", "note": "[SC22, (R)-2-(((4-(4-fluorobutoxy)benzyl)amino)methyl)chroman-7-ol]", "Ki": 5.6},
      {"smiles": "Oc1ccc2c(c1)O[C@@H](CNCCN1CCN(c3ccc(OCCF)cc3)CC1)CC2", "note": "[SC23, (R)-2-(((2-(4-(4-(2-fluoroethoxy)phenyl)piperazin-1-yl)ethyl)amino)methyl)chroman-7-ol]", "Ki": 6.67},
      {"smiles": "CC(C)CCN1CCN2c3cccc4[nH]cc(c34)CC2C1", "note": "(stereo not drawn) [SC25, 8-isopentyl-6,6a,7,8,9,10-hexahydro-4H-pyrazino[1,2-a]pyrrolo[4,3,2-de]quinoline]", "Ki": 24},
      {"smiles": "c1cc2c3c(c[nH]c3c1)CC1CN(CC3CCCCC3)CCN21", "note": "(stereo not drawn) [SC26, 8-(cyclohexylmethyl)-6,6a,7,8,9,10-hexahydro-4H-pyrazino[1,2-a]pyrrolo[4,3,2-de]quinoline]", "Ki": 53.7},
      {"smiles": "COc1ccccc1N1CCN(CCCCCNC(=O)c2sc3nc(OC)c(Cl)c(C)c3c2N)CC1", "note": "[SC27, 3-amino-5-chloro-6-methoxy-N-(5-(4-(2-methoxyphenyl)piperazin-1-yl)pentyl)-4-methylthieno[2,3-b]pyridine-2-carboxamide]", "Ki": 3.5},
      {"smiles": "CC(C)(C)OC(=O)NCCCCCN1CCN(c2cccc(Cl)c2Cl)CC1", "note": "[SC28, tert-butyl (5-(4-(2,3-dichlorophenyl)piperazin-1-yl)pentyl)carbamate]", "Ki": 42.6},
      {"smiles": "Cc1cc(C)c2c(N)c(C(=O)NCCCCCN3CCN(c4cccc(Cl)c4Cl)CC3)sc2n1", "note": "[SC29, 3-amino-N-(5-(4-(2,3-dichlorophenyl)piperazin-1-yl)pentyl)-4,6-dimethylthieno[2,3-b]pyridine-2-carboxamide]", "Ki": 11.2},
      {"smiles": "COc1ccccc1N1CCN(CCCNC(=O)OC(C)(C)C)CC1", "note": "[SC30, tert-butyl (3-(4-(2-methoxyphenyl)piperazin-1-yl)propyl)carbamate]", "Ki": 15.8},
      {"smiles": "COc1ccccc1N1CCN(CCCCCNC(=O)OC(C)(C)C)CC1", "note": "[SC31, tert-butyl (5-(4-(2-methoxyphenyl)piperazin-1-yl)pentyl)carbamate]", "Ki": 12},
      {"smiles": "C#CC1=CC[C@@H](N(CCC)CCCCNC(=O)c2ccc(OCCCc3cn(CCCC)nn3)c(OC)c2)CO1", "note": "[SC34, (R)-4-(3-(1-butyl-1H-1,2,3-triazol-4-yl)propoxy)-N-(4-((6-ethynyl-3,4-dihydro-2H-pyran-3-yl)(propyl)amino)butyl)-3-methoxybenzamide]", "Ki": 1.6},
      {"smiles": "C#CC1=CC[C@H](N(CCC)CCCCNC(=O)c2ccc(OCCCc3cn(CCCC)nn3)c(OC)c2)CO1", "note": "[SC35, (S)-4-(3-(1-butyl-1H-1,2,3-triazol-4-yl)propoxy)-N-(4-((6-ethynyl-3,4-dihydro-2H-pyran-3-yl)(propyl)amino)butyl)-3-methoxybenzamide]", "Ki": 4.9},
      {"smiles": "CCCCn1cc(CCCOc2ccc(C(=O)NCCCCN(CCC)CCc3ccc(O)c4[nH]c(=O)ccc34)cc2OC)nn1", "note": "[SC36, 4-(3-(1-butyl-1H-1,2,3-triazol-4-yl)propoxy)-N-(4-((2-(8-hydroxy-2-oxo-1,2-dihydroquinolin-5-yl)ethyl)(propyl)amino)butyl)-3-methoxybenzamide]", "Ki": 24},
      {"smiles": "CCCCn1cc(CCCOc2ccc(C(=O)NCCCCN(CCC)[C@H]3CCc4c(O)cccc4C3)cc2OC)nn1", "note": "[SC37, (S)-4-(3-(1-butyl-1H-1,2,3-triazol-4-yl)propoxy)-N-(4-((5-hydroxy-1,2,3,4-tetrahydronaphthalen-2-yl)(propyl)amino)butyl)-3-methoxybenzamide]", "Ki": 0.47},
      {"smiles": "CCCN(CCC)[C@@H]1Cc2cccc3c2n(c(=O)n3CCC)C1", "note": "[SC38, (R)-5-(dipropylamino)-1-propyl-5,6-dihydro-4H-imidazo[4,5,1-ij]quinolin-2(1H)-one]", "Ki": 2.59},
      {"smiles": "CCCCn1c(=O)n2c3c(cccc31)C[C@@H](NC)C2", "note": "[SC39, (R)-1-butyl-5-(methylamino)-5,6-dihydro-4H-imidazo[4,5,1-ij]quinolin-2(1H)-one]", "Ki": 12.8},
      {"smiles": "CCCn1c(=O)n2c3c(cccc31)C[C@@H](NC)C2", "note": "[SC40, (R)-5-(methylamino)-1-propyl-5,6-dihydro-4H-imidazo[4,5,1-ij]quinolin-2(1H)-one]", "Ki": 13.2},
      {"smiles": "CCCN[C@@H]1Cc2cccc3c2n(c(=O)n3CCC)C1", "note": "[SC41, (R)-1-propyl-5-(propylamino)-5,6-dihydro-4H-imidazo[4,5,1-ij]quinolin-2(1H)-one]", "Ki": 8.08},
      {"smiles": "CCCN[C@@H]1Cc2cccc3c2n(c(=O)n3CCCCOCCCCc2ccccc2)C1", "note": "[SC42, (R)-1-(4-(4-phenylbutoxy)butyl)-5-(propylamino)-5,6-dihydro-4H-imidazo[4,5,1-ij]quinolin-2(1H)-one]", "Ki": 37.2},
      {"smiles": "CN[C@@H]1Cc2cccc3c2n(c(=O)n3CCCCOc2ccc3c(c2)NC(=O)CC3)C1", "note": "[SC44, (R)-5-(methylamino)-1-(4-((2-oxo-1,2,3,4-tetrahydroquinolin-7-yl)oxy)butyl)-5,6-dihydro-4H-imidazo[4,5,1-ij]quinolin-2(1H)-one]", "Ki": 338},
      {"smiles": "CN[C@@H]1Cc2cccc3c2n(c(=O)n3CCOCCOCCOCCCCc2ccccc2)C1", "note": "[SC45, (R)-5-(methylamino)-1-(2-(2-(2-(4-phenylbutoxy)ethoxy)ethoxy)ethyl)-5,6-dihydro-4H-imidazo[4,5,1-ij]quinolin-2(1H)-one]", "Ki": 34.7},
      {"smiles": "O=c1ccc2c(N3CCCN(CCCCOc4ccn5nccc5c4)CC3)ccc(O)c2[nH]1", "note": "[SC46, 8-hydroxy-5-(4-(4-(pyrazolo[1,5-a]pyridin-5-yloxy)butyl)-1,4-diazepan-1-yl)quinolin-2(1H)-one]", "Ki": 78}
    ]},
    {"molecular_target": "D2R (Homo sapiens, UniProt P14416)", "settings": "Table S2; data set of inactives, radio-ligand binding (RLB) assays; ref ChEMBL, [71]-[92]; read-out: KI; cited from earlier work", "units": {"Ki": "nM"}, "values": [
      {"smiles": "OC1CCc2ccc(N=CN3CCc4ccccc4C3)cc21", "note": "(stereo not drawn) [Compound S68, 6-(3,4-dihydro-1H-isoquinolin-2-ylmethylideneamino)-2,3-dihydro-1H-inden-1-ol]", "Ki": "> 300000"}
    ]},
    {"molecular_target": "D2R (Homo sapiens, UniProt P14416)", "settings": "read-out: KI; cited from earlier work", "units": {"Ki": "nM"}, "values": [
      {"smiles": "Clc1cccc(C2CCN(CCCCOc3ccc4scnc4c3)CC2)c1Cl", "note": "[SC6, 5-(4-(4-(2,3-dichlorophenyl)piperidin-1-yl)butoxy)benzo[d]thiazole]", "Ki": 42},
      {"smiles": "C#CC1=CC[C@H](N(CCC)CCCCNC(=O)c2cc3ccccn3n2)CC1", "note": "[SC12, (R)-N-(4-((4-ethynylcyclohex-3-en-1-yl)(propyl)amino)butyl)pyrazolo[1,5-a]pyridine-2-carboxamide]", "Ki": 5.5},
      {"smiles": "C#CC1=CC[C@H](N(CCC)CCCCNC(=O)c2cnn3ccccc23)CC1", "note": "[SC13, (R)-N-(4-((4-ethynylcyclohex-3-en-1-yl)(propyl)amino)butyl)pyrazolo[1,5-a]pyridine-3-carboxamide]", "Ki": 1.1},
      {"smiles": "C1=C(c2ccccc2)CCN(C[C@@H]2CCC=C(c3ccccc3)C2)C1", "note": "[SC32, (R)-4-phenyl-1-((2,3,4,5-tetrahydro-[1,1'-biphenyl]-3-yl)methyl)-1,2,3,6-tetrahydropyridine]", "Ki": 8.4},
      {"smiles": "Oc1ccc(C2=CCC[C@@H](CN3CC=C(c4ccccc4)CC3)C2)cc1", "note": "[SC33, (R)-3'-((4-phenyl-3,6-dihydropyridin-1(2H)-yl)methyl)-2',3',4',5'-tetrahydro-[1,1'-biphenyl]-4-ol]", "Ki": 0.62},
      {"smiles": "CCCN(CCC)[C@@H]1Cc2cccc3c2n(c(=O)n3CCCCNC(=O)c2cc3ccccc3[nH]2)C1", "note": "[SC43, (R)-N-(4-(5-(dipropylamino)-2-oxo-5,6-dihydro-4H-imidazo[4,5,1-ij]quinolin-1(2H)-yl)butyl)-1H-indole-2-carboxamide]", "Ki": 86.8},
      {"smiles": "CCCN(CCCCNC(=O)c1cc2ccccc2[nH]1)[C@@H]1Cc2cccc3c2n(c(=O)n3CCC)C1", "note": "[SC47, (R)-N-(4-((2-oxo-1-propyl-1,2,5,6-tetrahydro-4H-imidazo[4,5,1-ij]quinolin-5-yl)(propyl)amino)butyl)-1H-indole-2-carboxamide]", "Ki": 8.43}
    ]}
  ]
}
